Source: ChEMBL document CHEMBL1146695 (Bioorg Med Chem Lett, 2004)

Columns and labels:
Carbonic anhydrase 2 = Carbonic anhydrase 2 (Homo sapiens, UniProt P00918)
Description: Compound was evaluated for inhibition against human carbonic anhydrase II

Carbonic anhydrase 9 = Carbonic anhydrase 9 (Homo sapiens, UniProt Q16790)
Description: Compound was evaluated for inhibition against human carbonic anhydrase IX

Carbonic anhydrase 4 = biological target: T1, Carbonic anhydrase 4 (Bos taurus, UniProt Q95323)
T1 sequence (Q95323 whole entry): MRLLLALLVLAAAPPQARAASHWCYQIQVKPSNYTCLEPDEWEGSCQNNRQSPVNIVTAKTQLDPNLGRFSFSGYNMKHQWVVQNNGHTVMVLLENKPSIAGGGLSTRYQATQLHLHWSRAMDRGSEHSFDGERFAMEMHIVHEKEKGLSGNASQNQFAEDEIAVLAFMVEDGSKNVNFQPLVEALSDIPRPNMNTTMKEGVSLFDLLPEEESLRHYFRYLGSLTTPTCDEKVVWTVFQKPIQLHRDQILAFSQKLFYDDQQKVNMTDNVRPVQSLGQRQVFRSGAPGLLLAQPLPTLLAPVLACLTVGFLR
Description: Compound was evaluated for inhibition against bovine carbonic anhydrase IV

Carbonic anhydrase 1 = Carbonic anhydrase 1 (Homo sapiens, UniProt P00915)
Carbonic anhydrase 1, sequence (P00915 whole entry): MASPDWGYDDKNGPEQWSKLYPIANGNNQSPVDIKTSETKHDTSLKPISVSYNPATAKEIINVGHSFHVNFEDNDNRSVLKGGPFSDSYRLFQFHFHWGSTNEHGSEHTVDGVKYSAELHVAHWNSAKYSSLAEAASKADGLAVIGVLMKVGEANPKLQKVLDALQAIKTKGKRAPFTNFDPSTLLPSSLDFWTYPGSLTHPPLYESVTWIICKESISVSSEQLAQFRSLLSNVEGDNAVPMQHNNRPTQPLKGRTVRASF
Description: Compound was evaluated for inhibition against human carbonic anhydrase I

SMILES: NS(=O)(=O)c1ccc(S(=O)(=O)Nc2cccc3[nH]cc(Cl)c23)cc1
- Ki (Carbonic anhydrase 2): 15 nM
- Ki (Carbonic anhydrase 9): 24 nM
- Ki (Carbonic anhydrase 4): 65 nM
- Ki (Carbonic anhydrase 1): 31 nM
